This note sets out measurements from patent US12577240B2, “Antiviral heteroaryl ketone derivatives” (Pfizer Inc., priority 2020, dated 2026).

Test [1] has as its target T1, full length SARS-CoV-2 3CL protease (Severe acute respiratory syndrome coronavirus 2, UniProt P0DTD1).
T1 construct: measures the activity of full length SARS-CoV-2 3CL protease
Description: SARS-CoV-2 Coronavirus 3C Protease FRET Assay. In kind it is biochemical. Conditions: 15 nM enzyme, 25 μM peptide substrate, 60 minutes at 23° C., Morrison equation fit; read-out: FRET Assay Geometric Mean Ki.

Test [2] relates to SARS-CoV-2 (USA_WA1/2020) in VeroE6 cells enriched for hACE2 expression. As to the kind of experiment: Antiviral Activity from SARS-CoV-2 Infection (cytopathic effect, Cell Titer-Glo cell viability). In kind it is cell-based. Particulars: Severe acute respiratory syndrome coronavirus 2, Vero C1008, 72 h; VeroE6 cells enriched for hACE2, multiplicity of infection 0.002, 3-day incubation; alone or with 2 μM CP-100356 (table does not say which); read-out: Antiviral Assay Geometric Mean EC50. In general terms: Damage to the host cells serves as the signal in cytopathic effect assays.

SMILES strings stand for the structures.

Take `CC(C)[C@H](NS(C)(=O)=O)C(=O)N1CC2(CC2)C[C@H]1C(=O)N[C@@H](C[C@@H]1CCNC1=O)C(=O)c1nc2ccccc2s1` [Example 1, (6S)—N-{(2S)-1-(1,3-Benzothiazol-2-yl)-1-oxo-3-[(3S)-2-oxopyrrolidin-3-yl]propan-2-yl}-5-{(2S)-3-methyl-2-[(methylsulfonyl)amino]butanoyl}-5-azaspiro[2.4]heptane-6-carboxamide]: the Ki in test [1] came to 20.2 nM. Also, the concentration giving a half-maximal response (EC50) in test [2] is 5680 nM.
As to `COc1cccc2[nH]c(C(=O)N3C[C@H]4[C@@H]([C@H]3C(=O)N[C@@H](C[C@@H]3CCNC3=O)C(=O)c3nc5ccccc5s3)C4(C)C)cc12` [Example 2, (1R,2S,5S)—N-{(2S)-1-(1,3-Benzothiazol-2-yl)-1-oxo-3-[(3S)-2-oxopyrrolidin-3-yl]propan-2-yl}-3-[(4-methoxy-1H-indol-2-yl)carbonyl]-6,6-dimethyl-3-azabicyclo[3.1.0]hexane-2-carboxamide], in test [1], the Ki was found to be 206 nM.
Same read-out and setting: as for `CC(C)[C@H](NS(C)(=O)=O)C(=O)N1C[C@H]2[C@@H]([C@H]1C(=O)N[C@@H](C[C@@H]1CCNC1=O)C(=O)c1nc3c(C(F)(F)F)cccc3s1)C2(C)C` [Example 4, (1R,2S,5S)-6,6-Dimethyl-3-[N-(methylsulfonyl)-L-valyl]-N-{(2S)-1-oxo-3-[(3S)-2-oxopyrrolidin-3-yl]-1-[4-(trifluoromethyl)-1,3-benzothiazol-2-yl]propan-2-yl}-3-azabicyclo[3.1.0]hexane-2-carboxamide], the figure is 7.74 nM.
Take `CC(C)(C)OC(=O)N[C@H](C(=O)N1C[C@H]2[C@@H]([C@H]1C(=O)N[C@@H](C[C@@H]1CCNC1=O)C(=O)c1nc3ccccc3s1)C2(C)C)C(C)(C)C` [Example 6, tert-Butyl {(2S)-1-[(1R,2S,5S)-2-({(2S)-1-(1,3-benzothiazol-2-yl)-1-oxo-3-[(3S)-2-oxopyrrolidin-3-yl]propan-2-yl}carbamoyl)-6,6-dimethyl-3-azabicyclo[3.1.0]hexan-3-yl]-3,3-dimethyl-1-oxobutan-2-yl}carbamate]: the Ki in test [1] is 137 nM. For the same molecule, the half-maximal effective concentration (EC50) in test [2] stood at 492 nM.
`CC1(C)[C@@H]2[C@@H](C(=O)N[C@@H](C[C@@H]3CCNC3=O)C(=O)c3nc4ccccc4s3)N(C(=O)[C@H]3CCCO3)C[C@@H]21` [Example 8, (1R,2S,5S)-N-{(2S)-1-(1,3-benzothiazol-2-yl)-1-oxo-3-[(3S)-2-oxopyrrolidin-3-yl]propan-2-yl}-6,6-dimethyl-3-[(2R)-tetrahydrofuran-2-ylcarbonyl]-3-azabicyclo[3.1.0]hexane-2-carboxamide]: the Ki in test [1] was found to be 6330 nM.
Take `O=C1NCC[C@H]1C[C@H](NC(=O)[C@@H]1CC2(CC2)CN1C(=O)[C@H]1CCCO1)C(=O)c1nc2ccccc2s1` [Example 9, (6S)-N-{(2S)-1-(1,3-benzothiazol-2-yl)-1-oxo-3-[(3S)-2-oxopyrrolidin-3-yl]propan-2-yl}-5-[(2R)-tetrahydrofuran-2-ylcarbonyl]-5-azaspiro[2.4]heptane-6-carboxamide]: the Ki in test [1] is more than 10000 nM.
Still for that read-out and setting: as for `CC(C)[C@H](NS(=O)(=O)C1CC1)C(=O)N1C[C@H]2[C@@H]([C@H]1C(=O)N[C@@H](C[C@@H]1CCNC1=O)C(=O)c1nc3ccccc3s1)C2(C)C` [Example 10, (1R,2S,5S)-N-{(2S)-1-(1,3-benzothiazol-2-yl)-1-oxo-3-[(3S)-2-oxopyrrolidin-3-yl]propan-2-yl}-3-[N-(cyclopropylsulfonyl)-L-valyl]-6,6-dimethyl-3-azabicyclo[3.1.0]hexane-2-carboxamide], the figure is 19.6 nM.
As for `CC(C)(C)[C@H](NS(=O)(=O)C(C)(C)C)C(=O)N1C[C@H]2[C@@H]([C@H]1C(=O)N[C@@H](C[C@@H]1CCNC1=O)C(=O)c1nc3ccccc3s1)C2(C)C` [Example 11, (1R,2S,5S)-N-{(2S)-1-(1,3-benzothiazol-2-yl)-1-oxo-3-[(3S)-2-oxopyrrolidin-3-yl]propan-2-yl}-3-[N-(tert-butylsulfonyl)-3-methyl-L-valyl]-6,6-dimethyl-3-azabicyclo[3.1.0]hexane-2-carboxamide], in test [1], the inhibition constant (Ki) was 13.7 nM. The EC50 in test [2] stood at 155 nM.
Regarding `CC(C)[C@H](NS(=O)(=O)C(C)(C)C)C(=O)N1C[C@H]2[C@@H]([C@H]1C(=O)N[C@@H](C[C@@H]1CCNC1=O)C(=O)c1nc3ccccc3s1)C2(C)C` [Example 12, (1R,2S,5S)-N-{(2S)-1-(1,3-benzothiazol-2-yl)-1-oxo-3-[(3S)-2-oxopyrrolidin-3-yl]propan-2-yl}-3-[N-(tert-butylsulfonyl)-L-valyl]-6,6-dimethyl-3-azabicyclo[3.1.0]hexane-2-carboxamide], in test [1], the Ki turned out to be 34.2 nM.
As to `CC(C)C(=O)N[C@H](C(=O)N1C[C@H]2[C@@H]([C@H]1C(=O)N[C@@H](C[C@@H]1CCNC1=O)C(=O)c1nc3ccccc3s1)C2(C)C)C(C)(C)C` [Example 14, (1R,2S,5S)-N-{(2S)-1-(1,3-benzothiazol-2-yl)-1-oxo-3-[(3S)-2-oxopyrrolidin-3-yl]propan-2-yl}-6,6-dimethyl-3-[3-methyl-N-(2-methylpropanoyl)-L-valyl]-3-azabicyclo[3.1.0]hexane-2-carboxamide], the inhibitory constant (Ki) in test [1] was 6.02 nM.
Consider `CCC(=O)N[C@H](C(=O)N1C[C@H]2[C@@H]([C@H]1C(=O)N[C@@H](C[C@@H]1CCNC1=O)C(=O)c1nc3ccccc3s1)C2(C)C)C(C)(C)C` [Example 15, (1R,2S,5S)-N-{(2S)-1-(1,3-benzothiazol-2-yl)-1-oxo-3-[(3S)-2-oxopyrrolidin-3-yl]propan-2-yl}-6,6-dimethyl-3-(3-methyl-N-propanoyl-L-valyl)-3-azabicyclo[3.1.0]hexane-2-carboxamide], for which, in test [1], the Ki came to 6.14 nM.
Turning to `CCS(=O)(=O)N[C@H](C(=O)N1C[C@H]2[C@@H]([C@H]1C(=O)N[C@@H](C[C@@H]1CCNC1=O)C(=O)c1nc3ccccc3s1)C2(C)C)C(C)C` [Example 16, (1R,2S,5S)-N-{(2S)-1-(1,3-benzothiazol-2-yl)-1-oxo-3-[(3S)-2-oxopyrrolidin-3-yl]propan-2-yl}-3-[N-(ethylsulfonyl)-L-valyl]-6,6-dimethyl-3-azabicyclo[3.1.0]hexane-2-carboxamide], the Ki in test [1] came out at 10.3 nM.
As for `CC(C)(C)C(=O)N[C@H](C(=O)N1C[C@H]2[C@@H]([C@H]1C(=O)N[C@@H](C[C@@H]1CCNC1=O)C(=O)c1nc3ccccc3s1)C2(C)C)C(C)(C)C` [Example 17, (1R,2S,5S)-N-{(2S)-1-(1,3-benzothiazol-2-yl)-1-oxo-3-[(3S)-2-oxopyrrolidin-3-yl]propan-2-yl}-3-[N-(2,2-dimethylpropanoyl)-3-methyl-L-valyl]-6,6-dimethyl-3-azabicyclo[3.1.0]hexane-2-carboxamide], the Ki in test [1] is 99.1 nM. The EC50 in test [2] came out at 584 nM.
As for `CC(C)(C)[C@H](NS(C)(=O)=O)C(=O)N1C[C@H]2[C@@H]([C@H]1C(=O)N[C@@H](C[C@@H]1CCNC1=O)C(=O)c1nc3ccccc3s1)C2(C)C` [Example 18, (1R,2S,5S)-N-{(2S)-1-(1,3-benzothiazol-2-yl)-1-oxo-3-[(3S)-2-oxopyrrolidin-3-yl]propan-2-yl}-6,6-dimethyl-3-[3-methyl-N-(methylsulfonyl)-L-valyl]-3-azabicyclo[3.1.0]hexane-2-carboxamide], the inhibition constant Ki in test [1] came out at 1.55 nM. Also, the EC50 in test [2] is 129 nM.
For `CC(=O)N[C@H](C(=O)N1C[C@H]2[C@@H]([C@H]1C(=O)N[C@@H](C[C@@H]1CCNC1=O)C(=O)c1nc3ccccc3s1)C2(C)C)C(C)(C)C` [Example 19, (1R,2S,5S)-3-(N-acetyl-3-methyl-L-valyl)-N-{(2S)-1-(1,3-benzothiazol-2-yl)-1-oxo-3-[(3S)-2-oxopyrrolidin-3-yl]propan-2-yl}-6,6-dimethyl-3-azabicyclo[3.1.0]hexane-2-carboxamide], the Ki in test [1] stood at 9.77 nM. Further, the concentration for a half-maximal effect (EC50) in test [2] is 1330 nM.
Consider `CC1(C)C[C@@H](C(=O)N[C@@H](C[C@@H]2CCNC2=O)C(=O)c2nc3ccccc3s2)N(C(=O)[C@H]2CCCO2)C1` [Example 20, N-{(2S)-1-(1,3-benzothiazol-2-yl)-1-oxo-3-[(3S)-2-oxopyrrolidin-3-yl]propan-2-yl}-4,4-dimethyl-1-[(2R)-tetrahydrofuran-2-ylcarbonyl]-L-prolinamide], for which the Ki in test [1] was more than 10800 nM.

A word on the Ki: it is the dissociation constant of the complex between target and ligand, obtained from inhibition or displacement. What is called EC50 is the concentration needed to bring the measured effect to its halfway point.
